Measured values taken from patent publication US20160122320A1, “USEFUL COMBINATIONS OF MONOBACTAM ANTIBIOTICS WITH BETA-LACTAMASE INHIBITORS” (Basilea Pharmaceutica AG, priority 2005, published 2016).
“And” between values parts separate entries of the source, which are not always exact repeats. Equal entries are not always repeated. Structures can show the parent of a compound that is named as a salt.

Assays:
Assay in all cases: MIC, NCCLS broth microdilution
Type in all cases: cell-based
Conditions in all cases: for MIC of antibiotic: antibiotic alone, no inhibitor; for MIC of antibiotic at fixed inhibitor concentration (4 mg/L): MIC of antibiotic compound 1 with the labelled bridged monobactam of formula II and clavulanate, 4 mg/L each
[1] = system: Pseudomonas aeruginosa 1973E
Experimental: Antimicrobial activity of the compounds and of their combinations was determined against a selection of organisms according to the standard procedures described by the National Committee for Clinical Laboratory Standards (National Committee for Clinical Laboratory. Standards (2000). Methods for Dilution Antimicrobial Susceptibility Tests for Bacteria That Grow Aerobically-Fifth Edition: Approved Standard M7-A5. NCCLS, Wayne, Pa., USA).
In all cases the final concentration of DMSO incubated with the bacteria is less than or equal to 1%. […] Plates were incubated overnight at an appropriate temperature (30° C. or 37° C.) and optical densities assessed by eye. The MIC value is defined as the lowest compound concentration completely inhibiting visible growth of the test organism. When combinations between compounds of formula I with compounds of formula II and are evaluated the compounds of formula I are tested in dilution series as described above while the compounds of formula II and III-XIII were present in all wells at a constant concentration of 4 μg/mL each.

[2] = system: Pseudomonas aeruginosa MK1184
Acinetobacter sp. J2 = system: Acinetobacter sp. J2
[3] = system: Klebsiella pneumoniae CF104
Enterobacter cloacae P99 = system: Enterobacter cloacae P99
Serratia marcescens S6 = system: Serratia marcescens S6
[4] = system: Stenotrophomonas malthophilia 1AC736
[5] = Acinetobacter baumannii J2, with 102 and clavulanate
[6] = Acinetobacter baumannii J2, with 324 and clavulanate
[7] = Stenotrophomonas maltophilia 1AC736
[8] = Stenotrophomonas maltophilia 1AC736, with 102 and clavulanate
[9] = Stenotrophomonas maltophilia 1AC736, with 324 and clavulanate
[10] = Stenotrophomonas malthophilia 1AC736

SMILES	MIC of antibiotic [1]	MIC of antibiotic at fixed inhibitor concentration of 4 mg/L ([1]; with 102 and clavulanate)	MIC of antibiotic at fixed inhibitor concentration of 4 mg/L ([1]; with 324 and clavulanate)	MIC of antibiotic [2]	MIC of antibiotic at fixed inhibitor concentration of 4 mg/L ([2]; with 102 and clavulanate)	MIC of antibiotic at fixed inhibitor concentration of 4 mg/L ([2]; with 324 and clavulanate)	MIC of antibiotic (Acinetobacter sp. J2; Acinetobacter baumannii J2)	MIC of antibiotic at fixed inhibitor concentration of 4 mg/L (Acinetobacter sp. J2; [5])	MIC of antibiotic at fixed inhibitor concentration of 4 mg/L (Acinetobacter sp. J2; [6])	MIC of antibiotic [3]	MIC of antibiotic at fixed inhibitor concentration of 4 mg/L ([3]; with 102 and clavulanate)	MIC of antibiotic at fixed inhibitor concentration of 4 mg/L ([3]; with 324 and clavulanate)	MIC of antibiotic (Enterobacter cloacae P99)	MIC of antibiotic at fixed inhibitor concentration of 4 mg/L (Enterobacter cloacae P99; with 102 and clavulanate)	MIC of antibiotic at fixed inhibitor concentration of 4 mg/L (Enterobacter cloacae P99; with 324 and clavulanate)	MIC of antibiotic (Serratia marcescens S6)	MIC of antibiotic at fixed inhibitor concentration of 4 mg/L (Serratia marcescens S6; with 102 and clavulanate)	MIC of antibiotic at fixed inhibitor concentration of 4 mg/L (Serratia marcescens S6; with 324 and clavulanate)	MIC of antibiotic [4, 7]	MIC of antibiotic at fixed inhibitor concentration of 4 mg/L [4, 8]	also measured
NC(=O)CNC(=O)c1ccc[n+](CC(=O)N2CC[C@@H]3[C@H]2C(=O)N3S(=O)(=O)[O-])c1 [Compound 108, (1S,5R)-2-(2-{3-[N-(carbamoylmethyl)carbamoyl]pyridinium}acetyl)-7-oxo-2,6-diazabicyclo[3.2.0]heptane-6-sulfonate, inner salt]	–	–	–	–	–	–	–	–	–	–	–	–	–	–	–	–	–	–	–	–	MIC of antibiotic at fixed inhibitor concentration (4 mg/L) [1]: 4 mg/L; MIC of antibiotic at fixed inhibitor concentration (4 mg/L) [2]: >32 mg/L; MIC of antibiotic at fixed inhibitor concentration (4 mg/L) (Acinetobacter sp. J2; Acinetobacter sp. J2): >32 mg/L; MIC of antibiotic at fixed inhibitor concentration (4 mg/L) [3]: 1 mg/L; MIC of antibiotic at fixed inhibitor concentration (4 mg/L) (Enterobacter cloacae P99): 4 mg/L; MIC of antibiotic at fixed inhibitor concentration (4 mg/L) (Serratia marcescens S6): 0.25 mg/L; MIC of antibiotic at fixed inhibitor concentration (4 mg/L) [4, 10]: 0.125 mg/L
NS(=O)(=O)c1cccc(NC(=O)N2CC[C@@H]3[C@H]2C(=O)N3S(=O)(=O)[O-])c1.[Na+] [Compound 308]	–	–	–	–	–	–	–	–	–	–	–	–	–	–	–	–	–	–	–	–	MIC of antibiotic at fixed inhibitor concentration (4 mg/L) [1]: 4 mg/L; MIC of antibiotic at fixed inhibitor concentration (4 mg/L) [2]: >32 mg/L; MIC of antibiotic at fixed inhibitor concentration (4 mg/L) (Acinetobacter sp. J2; Acinetobacter sp. J2): >32 mg/L; MIC of antibiotic at fixed inhibitor concentration (4 mg/L) [3]: 0.5 mg/L; MIC of antibiotic at fixed inhibitor concentration (4 mg/L) (Enterobacter cloacae P99): 16 mg/L; MIC of antibiotic at fixed inhibitor concentration (4 mg/L) (Serratia marcescens S6): 0.5 mg/L; MIC of antibiotic at fixed inhibitor concentration (4 mg/L) [4, 10]: 0.125 mg/L
C[C@@H](O)[C@H]1C(=O)N2C(C(=O)O)=C(S[C@@H]3CN[C@H](C(=O)N(C)C)C3)[C@H](C)[C@H]12 [Meropenem, meropenem, reference compound]	1 mg/L	–	–	2 mg/L	–	–	2 mg/L	–	–	<0.06 mg/L	–	–	0.13 mg/L and 0.125 mg/L	–	–	16 mg/L	–	–	32 mg/L	–	MIC of antibiotic (Acinetobacter sp. J2; Acinetobacter sp. J2): 2 mg/L; MIC of antibiotic [4, 10]: 32 mg/L
O=C(N[C@@H]1CCNC1)c1ccc[n+](CC(=O)N2CC[C@@H]3[C@H]2C(=O)N3S(=O)(=O)[O-])c1 [Compound 125, 2-(2-{3-[N-((3R)pyrrolidin-3-yl)carbamoyl]pyridinium}acetyl)(1S,5R)-7-oxo-2,6-diazabicyclo[3.2.0]heptane-6-sulfonate, inner salt]	–	–	–	–	–	–	–	–	–	–	–	–	–	–	–	–	–	–	–	–	MIC of antibiotic at fixed inhibitor concentration (4 mg/L) [1]: 8 mg/L; MIC of antibiotic at fixed inhibitor concentration (4 mg/L) [2]: 16 mg/L; MIC of antibiotic at fixed inhibitor concentration (4 mg/L) (Acinetobacter sp. J2; Acinetobacter sp. J2): 4 mg/L; MIC of antibiotic at fixed inhibitor concentration (4 mg/L) [3]: <0.06 mg/L; MIC of antibiotic at fixed inhibitor concentration (4 mg/L) (Enterobacter cloacae P99): 32 mg/L; MIC of antibiotic at fixed inhibitor concentration (4 mg/L) (Serratia marcescens S6): 0.5 mg/L; MIC of antibiotic at fixed inhibitor concentration (4 mg/L) [4, 10]: 0.125 mg/L

More lines, main results first:

MIC of antibiotic [1]	MIC of antibiotic at fixed inhibitor concentration of 4 mg/L ([1]; with 102 and clavulanate)	MIC of antibiotic at fixed inhibitor concentration of 4 mg/L ([1]; with 324 and clavulanate)	MIC of antibiotic [2]	MIC of antibiotic at fixed inhibitor concentration of 4 mg/L ([2]; with 102 and clavulanate)	MIC of antibiotic at fixed inhibitor concentration of 4 mg/L ([2]; with 324 and clavulanate)	MIC of antibiotic (Acinetobacter sp. J2; Acinetobacter baumannii J2)	MIC of antibiotic at fixed inhibitor concentration of 4 mg/L (Acinetobacter sp. J2; [5])	MIC of antibiotic at fixed inhibitor concentration of 4 mg/L (Acinetobacter sp. J2; [6])	MIC of antibiotic [3]	MIC of antibiotic at fixed inhibitor concentration of 4 mg/L ([3]; with 102 and clavulanate)	MIC of antibiotic at fixed inhibitor concentration of 4 mg/L ([3]; with 324 and clavulanate)	MIC of antibiotic (Enterobacter cloacae P99)	MIC of antibiotic at fixed inhibitor concentration of 4 mg/L (Enterobacter cloacae P99; with 102 and clavulanate)	MIC of antibiotic at fixed inhibitor concentration of 4 mg/L (Enterobacter cloacae P99; with 324 and clavulanate)	MIC of antibiotic (Serratia marcescens S6)	MIC of antibiotic at fixed inhibitor concentration of 4 mg/L (Serratia marcescens S6; with 102 and clavulanate)	MIC of antibiotic at fixed inhibitor concentration of 4 mg/L (Serratia marcescens S6; with 324 and clavulanate)	MIC of antibiotic [4, 7]	MIC of antibiotic at fixed inhibitor concentration of 4 mg/L [4, 8]	SMILES	also measured
4 mg/L	4 mg/L	8 mg/L	4 mg/L	4 mg/L	4 mg/L	16 mg/L	16 mg/L	4 mg/L	>32 mg/L	0.5 mg/L	0.5 mg/L	>32 mg/L	16 mg/L	16 mg/L	1 mg/L	0.5 mg/L	0.5 mg/L	1 mg/L	2 mg/L	NC(=O)OCC1C(NC(=O)C(=NOCc2cc(=O)c(O)cn2O)c2csc(N)n2)C(=O)N1OCC(=O)O (centres unmarked) [Compound 41]	MIC of antibiotic at fixed inhibitor concentration of 4 mg/L [4, 9]: 1 mg/L
16 mg/L	8 mg/L	8 mg/L	4 mg/L	4 mg/L	4 mg/L	>32 mg/L	4 mg/L	8 mg/L	>32 mg/L	1 mg/L	2 mg/L	32 mg/L	8 mg/L	4 mg/L	0.5 mg/L	0.25 mg/L	0.25 mg/L	0.5 mg/L	0.5 mg/L	CC1(C)C(NC(=O)C(=NOCc2cc(=O)c(O)cn2O)c2nsc(N)n2)C(=O)N1OS(=O)(=O)O (centres unmarked) [Compound 32]	MIC of antibiotic at fixed inhibitor concentration of 4 mg/L [4, 9]: 0.5 mg/L
4 mg/L	4 mg/L	4 mg/L	8 mg/L	4 mg/L	4 mg/L	>32 mg/L	4 mg/L	8 mg/L	>32 mg/L	0.25 mg/L	0.25 mg/L	>32 mg/L	8 mg/L	4 mg/L	0.13 mg/L	0.25 mg/L	0.13 mg/L	0.5 mg/L	1 mg/L	C[C@H]1[C@H](NC(=O)/C(=N\OCc2cc(=O)c(O)cn2O)c2csc(N)n2)C(=O)N1OCC(=O)O [Compound 22, 2-((3S,4S)-3-{(2Z)-2-(2-amino(1,3-thiazol-4-yl))-3-[(1,5-dihydroxy-4-oxo(2-hydropyridyl))methoxy]-3-azaprop-2-enoylamino}-4-methyl-2-oxoazetidinyloxy)acetic acid]	MIC of antibiotic at fixed inhibitor concentration of 4 mg/L ([1]; with 324 and sulbactam): 4 mg/L; MIC of antibiotic at fixed inhibitor concentration of 4 mg/L ([2]; with 324 and sulbactam): 4 mg/L; MIC of antibiotic at fixed inhibitor concentration of 4 mg/L (Acinetobacter sp. J2; Acinetobacter baumannii J2, with 324 and sulbactam): 2 mg/L; MIC of antibiotic at fixed inhibitor concentration of 4 mg/L ([3]; with 324 and sulbactam): 4 mg/L; MIC of antibiotic at fixed inhibitor concentration of 4 mg/L (Enterobacter cloacae P99; with 324 and sulbactam): 4 mg/L; MIC of antibiotic at fixed inhibitor concentration of 4 mg/L (Serratia marcescens S6; with 324 and sulbactam): 0.13 mg/L; MIC of antibiotic at fixed inhibitor concentration of 4 mg/L [4, 9]: 1 mg/L; MIC of antibiotic at fixed inhibitor concentration of 4 mg/L ([4]; Stenotrophomonas maltophilia 1AC736, with 324 and sulbactam): 1 mg/L
>32 mg/L	>32 mg/L	–	>32 mg/L	>32 mg/L	–	>32 mg/L	>32 mg/L	–	>32 mg/L	<0.06 mg/L	–	16 mg/L	8 mg/L	–	4 mg/L	0.5 mg/L	–	8 mg/L	4 mg/L	C[C@H]1[C@H](NC(=O)/C(=N\OCc2cc(=O)c(O)cn2C)c2csc(N)n2)C(=O)N1S(=O)(=O)O [Compound 6, (3S,4S)-3-{(2Z)-2-(2-amino(1,3-thiazol-4-yl))-3-[(5-hydroxy-1-methyl-4-oxo(2-hydropyridyl))methoxy]-3-azaprop-2-enoylamino}-4-methyl-2-oxoazetidinesulfonic acid]	MIC of antibiotic at fixed inhibitor concentration of 4 mg/L ([1]; with 206 and clavulanate): >32 mg/L; MIC of antibiotic at fixed inhibitor concentration of 4 mg/L ([1]; with 315 and clavulanate): >32 mg/L; MIC of antibiotic at fixed inhibitor concentration of 4 mg/L ([2]; with 206 and clavulanate): >32 mg/L; MIC of antibiotic at fixed inhibitor concentration of 4 mg/L ([2]; with 315 and clavulanate): >32 mg/L; MIC of antibiotic at fixed inhibitor concentration of 4 mg/L (Acinetobacter sp. J2; Acinetobacter baumannii J2, with 206 and clavulanate): 32 mg/L; MIC of antibiotic at fixed inhibitor concentration of 4 mg/L (Acinetobacter sp. J2; Acinetobacter baumannii J2, with 315 and clavulanate): >32 mg/L; MIC of antibiotic at fixed inhibitor concentration of 4 mg/L ([3]; with 206 and clavulanate): 0.5 mg/L; MIC of antibiotic at fixed inhibitor concentration of 4 mg/L ([3]; with 315 and clavulanate): 0.5 mg/L; MIC of antibiotic at fixed inhibitor concentration of 4 mg/L (Enterobacter cloacae P99; with 206 and clavulanate): 16 mg/L; MIC of antibiotic at fixed inhibitor concentration of 4 mg/L (Enterobacter cloacae P99; with 315 and clavulanate): 4 mg/L; MIC of antibiotic at fixed inhibitor concentration of 4 mg/L (Serratia marcescens S6; with 206 and clavulanate): 4 mg/L; MIC of antibiotic at fixed inhibitor concentration of 4 mg/L (Serratia marcescens S6; with 315 and clavulanate): 4 mg/L; MIC of antibiotic at fixed inhibitor concentration of 4 mg/L ([4]; Stenotrophomonas maltophilia 1AC736, with 206 and clavulanate): 4 mg/L; MIC of antibiotic at fixed inhibitor concentration of 4 mg/L ([4]; Stenotrophomonas maltophilia 1AC736, with 315 and clavulanate): 2 mg/L
